Measured values reported in PubChem BioAssay (NCI).
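Step 1: Grow cells in 96-well plates. Step 2: Expose to compound for 48 hours at 5 concentrations. Step 3: Interpolate endpoints linearly; if unreached, use highest concentration. TGI: concentration producing complete growth inhibition.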

Experiments:
Assay in all cases: inhibition of tumour cell growth, NCI panel, 48 h
[1] = test system: NCI/ADR-RES ovarian
[2] = test system: CAKI-1 renal
[3] = test system: SK-MEL-2 melanoma
[4] = test system: KM12 colon
[5] = test system: HOP-62 NSCLC
[6] = test system: HCT-15 colon
[7] = test system: MDA-N
[8] = test system: 786-0 renal
[9] = test system: UACC-257 melanoma
[10] = test system: K-562 leukemia
[11] = test system: NCI-H226 lung

Compound	TGI [1]	TGI [2]	TGI [3]	TGI [4]	TGI [5]	TGI [6]	TGI [7]	TGI [8]	TGI [9]	TGI [10]	TGI [11]
OCCO[P+]1(OCCO)n2c3ccc2C(c2ccccc2)=C2C=CC(=N2)C(c2ccccc2)=c2ccc(n21)=C(c1ccccc1)C1=NC(=C3c2ccccc2)C=C1	41.4 µM	2.59 µM	0.0438 µM	0.21 µM	1.72 µM	3.59 µM	0.092 µM	1.28 µM	0.0545 µM	18 µM	–
CC(C)(C)OC(=O)NCC(=O)N1CCCN(C(=O)CNC(=O)OC(C)(C)C)CC1	> 100 µM	> 100 µM	> 100 µM	> 100 µM	> 100 µM	> 100 µM	> 100 µM	> 100 µM	> 100 µM	> 100 µM	> 100 µM
Cc1n(CC(=O)c2ccccc2)nc2sc(N)n[n+]12	> 100 µM	> 100 µM	> 100 µM	> 100 µM	> 100 µM	> 100 µM	> 100 µM	> 100 µM	> 100 µM	> 100 µM	> 100 µM
O=C(OCc1ccccc1)N1c2cc([N+](=O)[O-])ccc2C(=O)N2CCC[C@H]2C1O (some centres not stated)	> 100 µM	> 100 µM	> 100 µM	> 100 µM	> 100 µM	> 100 µM	> 100 µM	> 100 µM	> 100 µM	> 100 µM	> 100 µM
C/C(N=Nc1nc2ccccc2o1)=C1/C=CC=CN1O	89.1 µM	29 µM	> 100 µM	> 100 µM	> 100 µM	> 100 µM	> 100 µM	> 100 µM	> 100 µM	> 100 µM	> 100 µM
c1ccc(C2=C(c3ccccc3)P(c3ccccc3)C2)cc1 (configuration not stated)	> 100 µM	> 100 µM	> 100 µM	> 100 µM	> 100 µM	> 100 µM	> 100 µM	> 100 µM	> 100 µM	–	> 100 µM
CCCCCCCCC/C=C1\CC(CO)(COC(=O)c2ccccc2)OC1=O (configuration not stated)	51.9 µM	52.5 µM	> 100 µM	57.2 µM	29.8 µM	35.5 µM	43.1 µM	39.8 µM	79.9 µM	> 100 µM	57.9 µM
O=C(/C=C/c1ccccc1O)/C=C/c1ccccc1O	4.88 µM	3.21 µM	23.1 µM	3.3 µM	5.76 µM	5.1 µM	3.93 µM	3.22 µM	21.8 µM	> 100 µM	–
CCC(C)C1(O)OC2CC3(C)OC(=CC3=O)/C(C)=C\C3OC(=O)C1(C)C32 (configuration not stated)	> 100 µM	31.5 µM	96.5 µM	24.7 µM	> 100 µM	17.3 µM	21 µM	81.8 µM	45.7 µM	> 100 µM	63 µM
N#Cc1c(N2CCN(c3ccc([N+](=O)[O-])cc3)CC2)[n+](=O)c2ccc(Cl)cc2n1[O-]	7.85 µM	2.7 µM	8.54 µM	13.3 µM	–	2.17 µM	> 26.1 µM	4.58 µM	8.21 µM	> 100 µM	13.8 µM
O=C(O)c1ccc(Nc2nc3ccccc3nc2C(=O)O)cc1	> 100 µM	> 100 µM	> 100 µM	> 100 µM	> 100 µM	–	> 100 µM	> 100 µM	> 100 µM	> 100 µM	–
COc1ccc(C2c3cc4c(cc3OC(N3CCCCC3)C2C)OCO4)cc1 (configuration not stated)	> 100 µM	84.9 µM	> 100 µM	> 100 µM	> 100 µM	> 100 µM	> 100 µM	> 100 µM	> 100 µM	> 100 µM	–
O=C(C#Cc1cn(C2CC(O)C(CO)O2)c(=O)[nH]c1=O)c1ccccc1 (configuration not stated)	> 100 µM	> 100 µM	> 100 µM	> 100 µM	> 100 µM	> 100 µM	> 100 µM	> 100 µM	> 100 µM	–	> 100 µM
CN1CC2CC(C1)c1cccc(=O)n1C2 (configuration not stated)	> 100 µM	> 100 µM	> 100 µM	> 100 µM	> 100 µM	> 100 µM	> 100 µM	> 100 µM	> 100 µM	–	–
CC(=O)OCC1OC(c2nnc(C)o2)=CC(OC(C)=O)C1OC(C)=O (configuration not stated)	> 100 µM	> 100 µM	–	> 100 µM	> 100 µM	–	> 100 µM	> 100 µM	> 100 µM	> 100 µM	> 100 µM
COc1cc(-c2nc3nc(N4CCN(C)CC4)ccc3[nH]2)c(OC)c2[nH]c(COC(C)=O)nc12	> 100 µM	> 100 µM	47.4 µM	83.3 µM	> 100 µM	> 100 µM	> 100 µM	72.4 µM	61.4 µM	> 100 µM	–
O=C1C[C@H](c2ccccc2)C2(C(=O)c3ccccc3C2=O)[C@H](c2ccccc2)C1	> 100 µM	> 100 µM	> 100 µM	> 100 µM	96 µM	> 100 µM	> 100 µM	–	–	> 100 µM	> 100 µM
O=C1/C(=C/c2ccco2)NC(=S)N1CN1CCOCC1	> 100 µM	–	> 100 µM	> 100 µM	> 100 µM	> 100 µM	> 100 µM	> 100 µM	> 100 µM	> 100 µM	> 100 µM
CC(C)(NC1=NCCO1)c1ccccc1	> 100 µM	> 100 µM	> 100 µM	> 100 µM	> 100 µM	> 100 µM	> 100 µM	> 100 µM	> 100 µM	–	> 100 µM
CC1CCC2(CC1)N=C1CCC(C)CC1C1(CCC(C)CC1)N2 (configuration not stated)	> 100 µM	> 100 µM	> 100 µM	> 100 µM	–	> 100 µM	> 100 µM	> 100 µM	> 100 µM	> 100 µM	> 100 µM
